According to ChEMBL document CHEMBL2346657, “Synthesis of novel 2-amino-4-(5'-substituted 2'-phenyl-1H-indol-3'-yl)-6-aryl-4H-pyran-3-carbonitrile derivatives as antimicrobial and antioxidant agents” (2013):
Activity calls are given as the source filed them. Unless noted, the calls are words filed in the database; no cut-off is given here.

How the values were obtained:
Format in all cases: functional
[1] = Antioxidant activity assessed as metal chelating activity by measuring inhibition of ferrozine-Fe2+ complex formation at 25 to 100 ug/ml
[2] = tested on: Radical scavenging activity; assay: Antioxidant activity assessed as DPPH radical scavenging activity at 75 ug/ml
Aspergillus flavus [3] = assay: Antimicrobial activity against Aspergillus flavus MTCC 1973 at 500 ug/ml after 72 hrs by cup plate method; conditions: MTCC 1973, 72 h, read-out: IZ
Aspergillus flavus [4] = assay: Antimicrobial activity against Aspergillus flavus MTCC 1973 at 750 ug/ml after 72 hrs by cup plate method; conditions: MTCC 1973, 72 h, read-out: IZ
Aspergillus flavus [5] = assay: Antimicrobial activity against Aspergillus flavus MTCC 1973 at 1000 ug/ml after 72 hrs by cup plate method; conditions: MTCC 1973, 72 h, read-out: IZ
Aspergillus terreus [6] = assay: Antimicrobial activity against Aspergillus terreus MTCC 1782 at 500 ug/ml after 72 hrs by cup plate method; conditions: MTCC 1782, 72 h, read-out: IZ
Aspergillus terreus [7] = assay: Antimicrobial activity against Aspergillus terreus MTCC 1782 at 750 ug/ml after 72 hrs by cup plate method; conditions: MTCC 1782, 72 h, read-out: IZ
Aspergillus terreus [8] = assay: Antimicrobial activity against Aspergillus terreus MTCC 1782 at 1000 ug/ml after 72 hrs by cup plate method; conditions: MTCC 1782, 72 h, read-out: IZ
Aspergillus oryzae [9] = assay: Antimicrobial activity against Aspergillus oryzae MTCC 3567 at 500 ug/ml after 72 hrs by cup plate method; conditions: MTCC 3567, 72 h, read-out: IZ
Aspergillus oryzae [10] = assay: Antimicrobial activity against Aspergillus oryzae MTCC 3567 at 750 ug/ml after 72 hrs by cup plate method; conditions: MTCC 3567, 72 h, read-out: IZ
Aspergillus oryzae [11] = assay: Antimicrobial activity against Aspergillus oryzae MTCC 3567 at 1000 ug/ml after 72 hrs by cup plate method; conditions: MTCC 3567, 72 h, read-out: IZ
Aspergillus niger [12] = assay: Antimicrobial activity against Aspergillus niger MTCC 281 at 500 ug/ml after 72 hrs by cup plate method; conditions: MTCC 281, 72 h, read-out: IZ
Aspergillus niger [13] = assay: Antimicrobial activity against Aspergillus niger MTCC 281 at 750 ug/ml after 72 hrs by cup plate method; conditions: MTCC 281, 72 h, read-out: IZ
Aspergillus niger [14] = assay: Antimicrobial activity against Aspergillus niger MTCC 281 at 1000 ug/ml after 72 hrs by cup plate method; conditions: MTCC 281, 72 h, read-out: IZ
Pseudomonas aeruginosa [15] = assay: Antimicrobial activity against Pseudomonas aeruginosa MTCC 1688 at 500 ug/ml after 24 hrs by cup plate method; conditions: MTCC 1688, 24 h, read-out: IZ
Pseudomonas aeruginosa [16] = assay: Antimicrobial activity against Pseudomonas aeruginosa MTCC 1688 at 750 ug/ml after 24 hrs by cup plate method; conditions: MTCC 1688, 24 h, read-out: IZ
Pseudomonas aeruginosa [17] = assay: Antimicrobial activity against Pseudomonas aeruginosa MTCC 1688 at 1000 ug/ml after 24 hrs by cup plate method; conditions: MTCC 1688, 24 h, read-out: IZ
Klebsiella pneumoniae [18] = assay: Antimicrobial activity against Klebsiella pneumoniae NCTC 13368 at 500 ug/ml after 24 hrs by cup plate method; conditions: NCTC 13368, 24 h, read-out: IZ
Klebsiella pneumoniae [19] = assay: Antimicrobial activity against Klebsiella pneumoniae NCTC 13368 at 750 ug/ml after 24 hrs by cup plate method; conditions: NCTC 13368, 24 h, read-out: IZ
Klebsiella pneumoniae [20] = assay: Antimicrobial activity against Klebsiella pneumoniae NCTC 13368 at 1000 ug/ml after 24 hrs by cup plate method; conditions: NCTC 13368, 24 h, read-out: IZ
Staphylococcus aureus [21] = assay: Antimicrobial activity against Staphylococcus aureus ATCC 29513 at 500 ug/ml after 24 hrs by cup plate method; conditions: ATCC 29513, 24 h, read-out: IZ
Staphylococcus aureus [22] = assay: Antimicrobial activity against Staphylococcus aureus ATCC 29513 at 750 ug/ml after 24 hrs by cup plate method; conditions: ATCC 29513, 24 h, read-out: IZ
Staphylococcus aureus [23] = assay: Antimicrobial activity against Staphylococcus aureus ATCC 29513 at 1000 ug/ml after 24 hrs by cup plate method; conditions: ATCC 29513, 24 h, read-out: IZ
Escherichia coli [24] = assay: Antimicrobial activity against Escherichia coli MTCC 723 at 500 ug/ml after 24 hrs by cup plate method; conditions: MTCC 723, 24 h, read-out: IZ
Escherichia coli [25] = assay: Antimicrobial activity against Escherichia coli MTCC 723 at 750 ug/ml after 24 hrs by cup plate method; conditions: MTCC 723, 24 h, read-out: IZ
Escherichia coli [26] = assay: Antimicrobial activity against Escherichia coli MTCC 723 at 1000 ug/ml after 24 hrs by cup plate method; conditions: MTCC 723, 24 h, read-out: IZ
[27] = Antioxidant activity assessed as ferric ion reducing activity at 75 ug/ml by FRAP assay
[28] = tested on: Radical scavenging activity; assay: Antioxidant activity assessed as DPPH radical scavenging activity at 100 ug/ml
[29] = Antioxidant activity assessed as ferric ion reducing activity at 25 to 75 ug/ml by FRAP assay
[30] = Antioxidant activity assessed as ferric ion reducing activity at 100 ug/ml by FRAP assay
[31] = Antioxidant activity assessed as ferric ion reducing activity at 25 to 100 ug/ml by FRAP assay

Row | SMILES | Activity [1] | zone of inhibition at 500 µg/mL (Aspergillus flavus [3]) | zone of inhibition at 750 µg/mL (Aspergillus flavus [4]) | zone of inhibition at 1000 µg/mL (Aspergillus flavus [5]) | zone of inhibition at 500 µg/mL (Aspergillus terreus [6]) | zone of inhibition at 750 µg/mL (Aspergillus terreus [7]) | zone of inhibition at 1000 µg/mL (Aspergillus terreus [8]) | zone of inhibition at 500 µg/mL (Aspergillus oryzae [9]) | zone of inhibition at 750 µg/mL (Aspergillus oryzae [10]) | zone of inhibition at 1000 µg/mL (Aspergillus oryzae [11]) | zone of inhibition at 500 µg/mL (Aspergillus niger [12]) | zone of inhibition at 750 µg/mL (Aspergillus niger [13]) | zone of inhibition at 1000 µg/mL (Aspergillus niger [14]) | zone of inhibition at 500 µg/mL (Pseudomonas aeruginosa [15]) | zone of inhibition at 750 µg/mL (Pseudomonas aeruginosa [16]) | zone of inhibition at 1000 µg/mL (Pseudomonas aeruginosa [17]) | zone of inhibition at 500 µg/mL (Klebsiella pneumoniae [18]) | zone of inhibition at 750 µg/mL (Klebsiella pneumoniae [19]) | zone of inhibition at 1000 µg/mL (Klebsiella pneumoniae [20]) | zone of inhibition at 500 µg/mL (Staphylococcus aureus [21]) | other results
1 | Cc1ccc(C2=CC(c3c(-c4ccccc4)[nH]c4ccc(Cl)cc34)c3c(nc4oc(=O)c(C#N)c(N)c4c3N)O2)cc1 (centres undefined) | Active | 6 mm | 5 mm | 3 mm | 3 mm | 3 mm | 3 mm | 10 mm | 10 mm | 10 mm | 0 mm | 0 mm | 3 mm | 2 mm | 2 mm | 2 mm | 8 mm | 8 mm | 8 mm | 5 mm | Activity [2]: Active; zone of inhibition at 750 µg/mL (Staphylococcus aureus [22]): 3 mm; zone of inhibition at 1000 µg/mL (Staphylococcus aureus [23]): 3 mm; zone of inhibition at 500 µg/mL (Escherichia coli [24]): 12 mm; zone of inhibition at 750 µg/mL (Escherichia coli [25]): 10 mm; zone of inhibition at 1000 µg/mL (Escherichia coli [26]): 9 mm
2 | Nc1nc(=S)[nH]c2c1C(c1c(-c3ccccc3)[nH]c3ccc(Cl)cc13)C=C(c1ccc(Cl)cc1)O2 (centres undefined) | Active | 5 mm | 4 mm | 11 mm | 2 mm | 3 mm | 3 mm | 9 mm | 10 mm | 0 mm | 11 mm | 11 mm | 14 mm | 10 mm | 10 mm | 11 mm | 5 mm | 5 mm | 8 mm | 13 mm | Activity [2]: Active; zone of inhibition at 750 µg/mL (Staphylococcus aureus [22]): 13 mm; zone of inhibition at 1000 µg/mL (Staphylococcus aureus [23]): 13 mm; zone of inhibition at 500 µg/mL (Escherichia coli [24]): 10 mm; zone of inhibition at 750 µg/mL (Escherichia coli [25]): 10 mm; zone of inhibition at 1000 µg/mL (Escherichia coli [26]): 11 mm
3 | Nc1n[nH]c2c1C(c1c(-c3ccccc3)[nH]c3ccccc13)C=C(c1ccc(Cl)cc1)O2 (centres undefined) | Active | 9 mm | 9 mm | 9 mm | 8 mm | 6 mm | 11 mm | 12 mm | 12 mm | 13 mm | 7 mm | 5 mm | 3 mm | 10 mm | 10 mm | 10 mm | 5 mm | 5 mm | 5 mm | 5 mm | Activity [27]: Active; zone of inhibition at 750 µg/mL (Staphylococcus aureus [22]): 4 mm; zone of inhibition at 1000 µg/mL (Staphylococcus aureus [23]): 3 mm; zone of inhibition at 500 µg/mL (Escherichia coli [24]): 13 mm; zone of inhibition at 750 µg/mL (Escherichia coli [25]): 13 mm; zone of inhibition at 1000 µg/mL (Escherichia coli [26]): 14 mm
4 | Nc1nc(=O)[nH]c2c1C(c1c(-c3ccccc3)[nH]c3ccc(Cl)cc13)C=C(c1ccc(Cl)cc1)O2 (centres undefined) | Active | 6 mm | 6 mm | 4 mm | 9 mm | 9 mm | 9 mm | 9 mm | 9 mm | 9 mm | 12 mm | 12 mm | 13 mm | 9 mm | 9 mm | 9 mm | 9 mm | 9 mm | 9 mm | 13 mm | Activity [27]: Active; Activity [28]: 75.5%; zone of inhibition at 750 µg/mL (Staphylococcus aureus [22]): 13 mm; zone of inhibition at 1000 µg/mL (Staphylococcus aureus [23]): 14 mm; zone of inhibition at 500 µg/mL (Escherichia coli [24]): 9 mm; zone of inhibition at 750 µg/mL (Escherichia coli [25]): 10 mm; zone of inhibition at 1000 µg/mL (Escherichia coli [26]): 10 mm
5 | Cc1ccc2[nH]c(-c3ccccc3)c(C3C=C(c4ccc(Cl)cc4)Oc4[nH]c(=S)nc(N)c43)c2c1 (centres undefined) | Active | 3 mm | 3 mm | 4 mm | 3 mm | 3 mm | 10 mm | 9 mm | 8 mm | 9 mm | 5 mm | 5 mm | 3 mm | 9 mm | 9 mm | 9 mm | 5 mm | 3 mm | 5 mm | 9 mm | Activity [29]: Active; zone of inhibition at 750 µg/mL (Staphylococcus aureus [22]): 9 mm; zone of inhibition at 1000 µg/mL (Staphylococcus aureus [23]): 11 mm; zone of inhibition at 500 µg/mL (Escherichia coli [24]): 4 mm; zone of inhibition at 750 µg/mL (Escherichia coli [25]): 3 mm; zone of inhibition at 1000 µg/mL (Escherichia coli [26]): 3 mm
6 | Nc1n[nH]c2c1C(c1c(-c3ccccc3)[nH]c3ccc(Cl)cc13)C=C(c1ccc(Cl)cc1)O2 (centres undefined) | Active | 9 mm | 9 mm | 5 mm | 9 mm | 9 mm | 8 mm | 10 mm | 10 mm | 10 mm | 10 mm | 10 mm | 11 mm | 10 mm | 9 mm | 9 mm | 13 mm | 13 mm | 13 mm | 14 mm | Activity [30]: Active; zone of inhibition at 750 µg/mL (Staphylococcus aureus [22]): 14 mm; zone of inhibition at 1000 µg/mL (Staphylococcus aureus [23]): 14 mm; zone of inhibition at 500 µg/mL (Escherichia coli [24]): 13 mm; zone of inhibition at 750 µg/mL (Escherichia coli [25]): 13 mm; zone of inhibition at 1000 µg/mL (Escherichia coli [26]): 14 mm
7 | Cc1ccc(C2=CC(c3c(-c4ccccc4)[nH]c4ccc(Cl)cc34)c3c(nc[nH]c3=O)O2)cc1 (centres undefined) | Active | 6 mm | 6 mm | 6 mm | 8 mm | 8 mm | 8 mm | 12 mm | 13 mm | 13 mm | 8 mm | 8 mm | 8 mm | 8 mm | 8 mm | 8 mm | 9 mm | 9 mm | 9 mm | 5 mm | Activity [31]: Active; Activity [29]: Active; zone of inhibition at 750 µg/mL (Staphylococcus aureus [22]): 3 mm; zone of inhibition at 1000 µg/mL (Staphylococcus aureus [23]): 3 mm; zone of inhibition at 500 µg/mL (Escherichia coli [24]): 3 mm; zone of inhibition at 750 µg/mL (Escherichia coli [25]): 3 mm; zone of inhibition at 1000 µg/mL (Escherichia coli [26]): 3 mm
